# In patent US12018172B2, “Sidechain functionalized organosiloxanes, coating compositions containing sidechain functionalized organosiloxanes, coated articles, and methods of making and methods of use thereof” (Adaptive Surface Technologies, Inc., priority 2018, dated 2024):
# Test: Biocide miscibility screening
# Assay type: physicochemical
# Conditions: 50:50 mixture, 24 hrs
# Description: Each component was mixed as 50:50 (based on active solids) mixture. The content was allowed to sit for 24 hrs before photographing.
smiles,measurement,value
"N#Cc1c(-c2ccc(Cl)cc2)[nH]c(C(F)(F)F)c1Br [Econea, Tralopyril 4-bromo-2-(4-chlorophenyl)-5-(trifluoromethyl)-1H-pyrrole-3-carbonitrile]",Miscibility of Econea and SeaNine 211N with each other,not miscible
same,Miscibility with AM-14,only partially miscible
same,Miscibility with AM-24,good miscibility
same,Miscibility with PDMS (silanol),only partially miscible
"CCCCCCCCn1sc(Cl)c(Cl)c1=O [SeaNine 211N, 4,5-Dichloro-2-n-octyl-4-isothiazolin-4-one]",Miscibility of Econea and SeaNine 211N with each other,not miscible
same,Miscibility with AM-14,miscible
same,Miscibility with AM-24,miscible
same,Miscibility with PDMS (silanol),did not show complete miscibility
